# From patent publication US20190211066A1 (INSTITUT NATIONAL DE LA SANTE ET DE LA RECHERCHE M EDICALE …, priority 2010, published 2019)
# Entries after “also recorded” stand apart in the source; their conditions may differ.
# Key:
# hCMEC/D3 cells [1] = assay: Growth (size) of Nm colonies on cells under flow; type: cell-based, human
# Protocol: (§1) hCMEC/D3 cells were grown on disposable flow chambers (15 μ-Slide VI, IBIDI) coated with 5 μg/cm^2 of rat-tail collagen type I. For experiments investigating Nm colony growth under shear stress, 10^7 bacteria were introduced into the flow chamber and allowed to adhere for […] without flow. Subsequently, a flow corresponding to a shear stress of 0.2 dyn/cm^2 was applied using a syringe pump (Harvard Apparatus). For adhesion assays under shear stress, 10^7 bacteria were allowed to adhere for 20 min under a shear stress of 0.04 dyn/cm^2, then the chambers were washed 1 min under a shear stress of 1 dyn/cm^2 (Mairey et al., 2008. J Exp Med 203, 1939-1950).
# GFP expression in bacteria was induced by adding 1 mM IPTG in EBM2, 0.1% BSA. For experiments aimed at determining the growth of colonies under shear stress, 107 bacteria were then introduced into the flow chamber and allowed to adhere for 20 min without flow. Subsequently, a flow corresponding to a shear stress of 0.2 dyn/cm2 was applied using a syringe pump (Harvard Apparatus). For adhesion assays under shear stress, […] were introduced into the flow chamber and allowed to adhere for 20 min under a shear stress of 0.04 dyn/cm2, subsequently the chamber was washed 1 min under a shear stress of 1 dyn/cm2, Fluorescent bacteria in the chambers were observed using an Olympus CKX41 inverted microscope with a 20× objective, equipped with a shutter for the fluorescence I amp and a Hamamatsu ORCA285 CCD camera. Images were collected and processed using the Openlab software (Improvision). The field under observation corresponded to a surface of 425 μm by 320 μm with a resolution of 0.63 μm per pixel. Images were analyzed using the lmageJ software.
# N. meningitidis = assay: Nm growth in culture and bacterial aggregation; details: 100 μM isoproterenol; data not shown
# hCMEC/D3 cells [2] = assay: Nm adhesion under shear stress (under flow); type: cell-based, human; details: pre-treatment with 10 μM isoproterenol, shear stress 0.04 dyn/cm^2
# Protocol: as §1
# GFP expression in bacteria was induced by adding 1 mM IPTG in EBM2, 0.1% BSA. […] For adhesion assays under shear stress, […] were introduced into the flow chamber and allowed to adhere for 20 min under a shear stress of 0.04 dyn/cm2, subsequently the chamber was washed 1 min under a shear stress of 1 dyn/cm2, Fluorescent bacteria in the chambers were observed using an Olympus CKX41 inverted microscope with a 20× objective, equipped with a shutter for the fluorescence I amp and a Hamamatsu ORCA285 CCD camera. […] Images were analyzed using the lmageJ software.
# hCMEC/D3 cells [3] = assay: Quantitative analysis of ezrin (and other proteins) recruitment under Nm bacterial colonies; details: for ezrin recruitment / ezrin-containing cortical plaques under Nm colonies after siRNA: infection three days after transfection
# Source text: The recruitment efficiency was estimated by determining the proportion of colonies positive for the indicated protein of interest. At least 50 colonies were observed per coverslip. Each experiment was repeated several times in duplicate or triplicate. Data was examined for significance using Student's t-test.
# (§2) The day before the infection, hCMEC/D3 cells were serum-starved in EBM-2 medium containing 0.1% Bovine Serum albumin (BSA). The day of infection, bacteria from an overnight culture were adjusted to OD600=0.05 and incubated for 2 h at 37° C. in pre-warmed starvation medium. Bacteria were added to cells at a multiplicity of infection (MOI) of 100 and allowed to adhere for 30 minutes. Unbound bacteria were washed with fresh medium and infection was allowed to proceed for 2 h. When needed, drugs were added to cell culture 1 h before infection. Bacteria were tested for growth and aggregation. […] The OD600 was then measured after 1, 2, 3, 4 and 8 h. Aggregation was determined after 2 h of incubation in EBM2, 0.1% BSA in the presence or absence of 100 μM isoproterenol at 37° C. in a 5% CO2 atmosphere under constant shaking.
# For each Nm strain, the recruitment efficiency was estimated by determining the proportion of colonies that efficiently recruited the protein of interest in a “honeycomb shape” just under the colonies. […] At least 50 colonies were scrutinized per coverslip. Each experiment was repeated several times (at least 3). Data was examined for significance using Student's t-test.
# hCMEC/D3 cell monolayers = assay: Nm transmigration assay and cell-cell junction gaps; type: cell-based, human
# Protocol: hCMEC/D3 cells were grown on 3 μm pore size MilliCell® inserts and infected at a MOI of 10, corresponding to 10^6 bacteria per insert. Four hours after infection, inserts were placed in a well with fresh medium. After additional 30 min, the number of bacteria, which had crossed the cell monolayer was determined by plating the content of the well and counting the number of colony forming units. To estimate the surface and number of macroscopic cell-cell junction openings, MilliCell® inserts were fixed in 4% PFA and immunostained for VE-cadherin and actin, Several baso-lateral cross-sections of each insert were acquired using a Leica SP5 confocal microscope. Surface and number of gaps within the hCMEC/D3 cell monolayer was determined using Leica Application Suite-AF (LAS-AF) software. Data were expressed as the number of gaps per 4×10 ^5 μm^2 of hCMEC/D3 cell monolayer surface. The size of gaps was determined using the apparent size of a Nm diplococcus as surface unit (approximately 1.7 μm^2).
# Briefly, hCMEC/D3 cells were grown on 3 μm pore size MilliCell® inserts and infected at a MOI of 10 (10^6 bacteria per insert). […] After 30 min, the number of bacteria, which had crossed the monolayer of endothelial cells, was then measured by plating the content of dilutions of the lower compartment on agar plates and counting the number of colony forming units (CFU). […]
# hCMEC/D3 cells [4] = assay: Static adhesion of Nm (absence of flow); details: isoproterenol pre-treatment
# Protocol: as §2
molecule,measurement,setting,value
C=C[C@@]1(C)CC(=O)[C@]2(O)[C@@]3(C)[C@@H](O)CCC(C)(C)[C@@H]3[C@H](O)[C@H](OC(C)=O)[C@@]2(C)O1 [forskolin],number and size of Nm colonies under flow compared to control conditions,hCMEC/D3 cells [1]; pre-incubation 1 h,no significant effect
CC(C)NCC(O)c1ccc(O)c(O)c1 (centres unmarked) [isoproterenol],direct inhibition of Nm growth in culture or of bacterial aggregation properties,N. meningitidis,not due to a direct inhibition
same,reduction of bacterial adhesion / number of colonies forming under flow,hCMEC/D3 cells [2],40%
same,effect on Nm-induced ezrin recruitment,"hCMEC/D3 cells [3]; hCMEC/D3 cells pre-treated with agonist for 2 h before Nm inoculation, saturating (10×KD) concentrations",showed an effect
same,number of ezrin-containing cortical plaques,"hCMEC/D3 cells [3]; isoproterenol dose response, hCMEC/D3 cells",dose-dependent reduction
same,"proportion of small colonies (≤12 μm^2, about 4 bacteria) under flow","hCMEC/D3 cells [1]; preincubation of cells for 1 h with 10 μM before perfusion of bacteria, control 20% after 4 h",≈ 70%
same,"proportion of large colonies (48 μm^2 or more, ≥16 bacteria) under flow","hCMEC/D3 cells [1]; preincubation of cells for 1 h with 10 μM before perfusion of bacteria, control about 50% after 4 h",~10%
same,number of cell-cell junction gaps induced by Nm,"hCMEC/D3 cell monolayers; isoproterenol pre-treatment 10 μM, 1 h, gaps of all size",noticeably reduced
same,number of meningococci crossing the monolayer (lower chamber of transwells),"hCMEC/D3 cell monolayers; isoproterenol pre-treatment 1 h, 10 μM",markedly reduced
same,bacterial adhesion in static conditions (absence of flow),hCMEC/D3 cells [4],No significant difference; also recorded: did not reduce; also recorded: similar
CC(C)NCC(O)COc1cccc2ccccc12 (centres unmarked) [propranolol],reversal of the effect of isoproterenol pre-treatment on Nm-promoted ezrin recruitment,hCMEC/D3 cells [3]; 100 nM propranolol added during pre-incubation with 10 μM isoproterenol,blocked the effect of isoproterenol
same,"number of ezrin-containing cortical plaques elicited by Nm, agent alone",hCMEC/D3 cells [3]; preincubation with saturating propranolol alone,no effect
GRK2 siRNA: small interfering RNA targeting human GRK2 (SEQ ID NO: 6) (guide AAGAAGUACGAGAAGCUGGAGUU; chemistry not given here),ezrin recruitment / ezrin-containing cortical plaques under Nm colonies after siRNA,hCMEC/D3 cells [3]; siRNA-treated hCMEC/D3 cells,inhibited
same,βarr2 recruitment under Nm colonies after siRNA,"hCMEC/D3 cells [3]; siRNA-treated hCMEC/D3 cells, βarr2-GFP readout",inhibited
"βarr1 and βarr2 siRNAs: small interfering RNAs targeting human βarrestin-1 (SEQ ID NO: 4) and βarrestin-2 (SEQ ID NO: 5) (guide 1 AAAGCCUUCUGCGCGGAGAAU; guide 2 GGCUUGUCCUUCCGCAAAGAC; listed as RNA, chemistry not given here)","recruitment of VE-cadherin, p120-catenin, F-actin and ezrin into cortical plaques after siRNA",hCMEC/D3 cells [3]; siRNA-treated Nm-infected hCMEC/D3 cells,markedly and simultaneously affected
same,Src recruitment under Nm colonies after siRNA,hCMEC/D3 cells [3]; siRNA-treated hCMEC/D3 cells,markedly reduced
same,ezrin recruitment / ezrin-containing cortical plaques under Nm colonies after siRNA,hCMEC/D3 cells [3]; siRNA-treated hCMEC/D3 cells,decrease
